Where two headings read alike, the source gives them in different places.
Key:
Type in all cases: cell-based
[1] = system: tetrodotoxin-sensitive voltage-gated sodium channels including NaV1.2, NaV1.3 and NaV1.7; assay: TTX-S Assay (VIPR, SHSY-5Y cell line, veratridine opener); settings: read-out: TTX-S IC50, veratridine 50 μM opener, average of replicates
Human Nav1.8 = target: T1, Human Nav1.8 (Homo sapiens, UniProt Q9Y5Y9); assay: VIPR Assay for Nav1.8 Compounds (FRET membrane potential, deltamethrin opener)
T1 construct: expressed in transfected cells; host or cells: HEK293
T1 sequence (Q9Y5Y9 whole entry): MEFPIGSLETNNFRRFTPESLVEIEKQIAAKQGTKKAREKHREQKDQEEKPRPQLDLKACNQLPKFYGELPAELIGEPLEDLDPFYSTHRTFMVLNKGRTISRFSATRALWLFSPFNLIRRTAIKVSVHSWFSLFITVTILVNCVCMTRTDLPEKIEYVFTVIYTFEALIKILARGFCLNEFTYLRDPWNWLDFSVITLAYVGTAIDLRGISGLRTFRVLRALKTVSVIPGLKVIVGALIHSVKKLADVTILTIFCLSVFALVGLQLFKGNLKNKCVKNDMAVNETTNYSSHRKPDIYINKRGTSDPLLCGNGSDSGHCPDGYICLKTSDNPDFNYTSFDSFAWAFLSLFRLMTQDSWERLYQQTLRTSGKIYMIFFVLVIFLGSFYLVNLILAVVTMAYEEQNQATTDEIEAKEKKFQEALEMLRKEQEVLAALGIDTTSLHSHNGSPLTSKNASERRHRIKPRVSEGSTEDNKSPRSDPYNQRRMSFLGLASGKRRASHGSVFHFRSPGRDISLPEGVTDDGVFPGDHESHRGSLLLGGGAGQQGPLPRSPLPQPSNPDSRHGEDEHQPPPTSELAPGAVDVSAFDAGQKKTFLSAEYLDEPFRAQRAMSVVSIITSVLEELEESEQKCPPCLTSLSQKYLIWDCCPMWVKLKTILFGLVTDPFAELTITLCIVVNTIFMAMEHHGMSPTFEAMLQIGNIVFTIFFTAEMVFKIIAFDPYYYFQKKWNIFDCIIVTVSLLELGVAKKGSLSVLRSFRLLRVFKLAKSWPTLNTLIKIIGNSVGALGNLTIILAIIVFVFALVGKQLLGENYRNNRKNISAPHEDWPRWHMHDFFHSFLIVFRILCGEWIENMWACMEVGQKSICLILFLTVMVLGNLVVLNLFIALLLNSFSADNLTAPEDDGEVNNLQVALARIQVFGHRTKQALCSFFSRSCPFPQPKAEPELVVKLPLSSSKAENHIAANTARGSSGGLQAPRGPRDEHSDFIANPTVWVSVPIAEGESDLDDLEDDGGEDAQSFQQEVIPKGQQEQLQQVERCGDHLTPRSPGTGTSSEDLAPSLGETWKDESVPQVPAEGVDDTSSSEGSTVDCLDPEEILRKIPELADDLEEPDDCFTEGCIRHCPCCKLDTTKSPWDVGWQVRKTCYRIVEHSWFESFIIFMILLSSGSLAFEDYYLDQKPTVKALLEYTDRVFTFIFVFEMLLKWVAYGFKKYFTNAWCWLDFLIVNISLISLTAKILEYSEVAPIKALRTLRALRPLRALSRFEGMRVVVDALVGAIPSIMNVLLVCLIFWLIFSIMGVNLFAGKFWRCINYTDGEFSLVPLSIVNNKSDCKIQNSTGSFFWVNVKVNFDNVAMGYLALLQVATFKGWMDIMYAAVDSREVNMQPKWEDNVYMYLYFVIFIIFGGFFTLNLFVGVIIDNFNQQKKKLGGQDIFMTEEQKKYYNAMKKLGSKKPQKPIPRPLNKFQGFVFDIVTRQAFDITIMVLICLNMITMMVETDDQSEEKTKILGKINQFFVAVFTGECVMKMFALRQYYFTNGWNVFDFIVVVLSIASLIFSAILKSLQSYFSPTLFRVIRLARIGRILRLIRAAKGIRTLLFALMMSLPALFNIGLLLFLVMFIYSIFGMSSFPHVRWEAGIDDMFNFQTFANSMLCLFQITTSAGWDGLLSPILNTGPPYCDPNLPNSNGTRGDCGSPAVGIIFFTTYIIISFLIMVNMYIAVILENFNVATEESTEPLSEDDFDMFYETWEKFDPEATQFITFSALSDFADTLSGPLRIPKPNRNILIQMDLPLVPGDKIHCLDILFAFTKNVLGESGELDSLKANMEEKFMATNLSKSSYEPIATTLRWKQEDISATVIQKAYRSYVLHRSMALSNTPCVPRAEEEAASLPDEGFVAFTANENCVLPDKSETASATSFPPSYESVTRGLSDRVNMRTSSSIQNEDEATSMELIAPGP

Human Nav1.5 = target: T2, Human Nav1.5 (Homo sapiens, UniProt Q14524); assay: Nav1.5 Assay (VIPR, HEK293 cells)
T2 construct: expressed in transfected cells; host or cells: HEK293
T2 sequence (Q14524 whole entry): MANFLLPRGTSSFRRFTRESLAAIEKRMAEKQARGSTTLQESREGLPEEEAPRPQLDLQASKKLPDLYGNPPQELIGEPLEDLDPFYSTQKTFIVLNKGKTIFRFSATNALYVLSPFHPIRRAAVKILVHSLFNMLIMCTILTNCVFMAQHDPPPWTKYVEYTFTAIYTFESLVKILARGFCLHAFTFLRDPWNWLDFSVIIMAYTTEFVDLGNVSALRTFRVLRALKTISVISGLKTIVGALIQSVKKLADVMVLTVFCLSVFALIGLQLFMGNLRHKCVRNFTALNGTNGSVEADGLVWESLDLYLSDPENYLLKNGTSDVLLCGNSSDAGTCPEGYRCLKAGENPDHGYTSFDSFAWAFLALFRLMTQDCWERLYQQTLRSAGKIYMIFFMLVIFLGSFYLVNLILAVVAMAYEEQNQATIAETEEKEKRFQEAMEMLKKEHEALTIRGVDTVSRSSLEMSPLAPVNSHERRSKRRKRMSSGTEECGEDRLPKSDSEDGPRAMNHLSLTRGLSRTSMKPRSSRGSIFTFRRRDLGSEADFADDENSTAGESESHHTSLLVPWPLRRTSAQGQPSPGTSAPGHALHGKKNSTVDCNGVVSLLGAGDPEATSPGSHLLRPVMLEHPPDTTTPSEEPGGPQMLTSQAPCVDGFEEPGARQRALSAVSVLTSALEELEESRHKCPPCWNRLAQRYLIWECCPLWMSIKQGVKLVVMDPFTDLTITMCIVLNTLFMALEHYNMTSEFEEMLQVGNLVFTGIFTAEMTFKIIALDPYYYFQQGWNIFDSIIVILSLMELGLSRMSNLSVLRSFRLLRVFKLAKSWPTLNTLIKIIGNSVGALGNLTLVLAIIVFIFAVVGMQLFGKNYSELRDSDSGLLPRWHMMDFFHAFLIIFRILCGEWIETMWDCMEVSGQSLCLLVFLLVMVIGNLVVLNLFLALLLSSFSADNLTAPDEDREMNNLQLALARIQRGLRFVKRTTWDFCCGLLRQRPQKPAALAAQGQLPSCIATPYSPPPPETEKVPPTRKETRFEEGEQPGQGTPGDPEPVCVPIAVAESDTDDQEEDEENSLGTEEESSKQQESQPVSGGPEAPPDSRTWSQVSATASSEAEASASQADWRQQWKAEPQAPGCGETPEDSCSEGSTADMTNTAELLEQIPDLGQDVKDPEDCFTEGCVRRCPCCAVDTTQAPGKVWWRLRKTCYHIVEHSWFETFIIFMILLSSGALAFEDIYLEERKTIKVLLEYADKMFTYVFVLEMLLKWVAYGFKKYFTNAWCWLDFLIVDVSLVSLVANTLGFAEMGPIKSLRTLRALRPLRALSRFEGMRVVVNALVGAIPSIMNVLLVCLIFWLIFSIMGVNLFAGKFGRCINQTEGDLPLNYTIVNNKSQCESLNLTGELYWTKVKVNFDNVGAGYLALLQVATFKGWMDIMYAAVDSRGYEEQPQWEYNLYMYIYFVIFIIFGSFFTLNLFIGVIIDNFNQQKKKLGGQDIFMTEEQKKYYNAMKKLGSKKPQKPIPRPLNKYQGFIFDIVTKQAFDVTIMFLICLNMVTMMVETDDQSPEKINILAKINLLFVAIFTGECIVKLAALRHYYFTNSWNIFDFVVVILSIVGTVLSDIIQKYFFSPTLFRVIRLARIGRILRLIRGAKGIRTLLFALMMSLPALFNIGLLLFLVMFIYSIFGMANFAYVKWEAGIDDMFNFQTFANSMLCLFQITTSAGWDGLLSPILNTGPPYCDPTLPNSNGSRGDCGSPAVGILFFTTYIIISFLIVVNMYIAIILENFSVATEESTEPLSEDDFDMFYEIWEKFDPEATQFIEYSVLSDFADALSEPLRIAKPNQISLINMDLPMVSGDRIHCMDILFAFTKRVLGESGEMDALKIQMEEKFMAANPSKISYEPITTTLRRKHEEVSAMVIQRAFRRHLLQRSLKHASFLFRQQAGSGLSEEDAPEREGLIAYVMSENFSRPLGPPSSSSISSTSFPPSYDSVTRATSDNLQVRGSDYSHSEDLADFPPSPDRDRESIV
Method: The Nav1.5 assay is performed in HEK293 cells expressing Human Nav1.5 in the same way as the Nav1.8 assay.
Where replicate experiments were conducted resulting in multiple sets of data for a test compound, the data presented represent the average value from all replicate experiments.

[2] = VIPR FRET membrane potential assay, deltamethrin opener, average of replicates, read-out: Nav1.8 IC50
[3] = HEK293 cells expressing Human Nav1.5, average of replicates, read-out: Nav1.5 IC50

SMILES | IC50 [1] [µM] | IC50 (Human Nav1.8; [2]) [µM] | IC50 (Human Nav1.5; [3]) [µM] | IC50 (Human Nav1.8) [µM] | IC50 (Human Nav1.5) [µM]
CC(C)n1nccc1C(=O)Nc1ccc(-c2ccccc2Cl)c(N)n1 [Example 66, N-[6-Amino-5-(2-chlorophenyl)pyridin-2-yl]-1-isopropyl-1H-pyrazole-5-carboxamide] | 11 | 2.4 | – | – | –
COc1ccc(OC(F)(F)F)c(-c2ccc(NC(=O)c3conc3C)nc2N)c1 [Example 148] | – | 0.56 | 10 | – | –
CCCOc1ccc(F)cc1-c1ccc(NC(=O)c2conc2C)nc1N [Example 162] | – | 0.09 | 7.7 | – | –
Nc1nc(NC(=O)c2ccccc2)ccc1-c1ccccc1Cl [Example 98] | 10 | 2 | – | – | –
COC(C)COc1ccc(F)cc1-c1ccc(NC(=O)c2ccnn2C)nc1N (stereo not shown) [Example 158] | – | 15 | > 32 | – | –
COCCOc1ccc(Cl)c(-c2ccc(NC(=O)c3ccnn3C)nc2N)c1 [Example 151] | – | 5.1 | > 32 | – | –
Nc1nc(NC(=O)c2ccccc2)ccc1-c1cc(Cl)ccc1Cl [Example 97] | 5.4 | 1.9 | – | – | –
COCc1ccc(Cl)c(-c2ccc(NC(=O)c3ccnn3C)nc2N)c1 [Example 141] | – | 5.4 | > 32 | – | –
Nc1nc(NC(=O)c2ccno2)ccc1-c1ccccc1Cl [Example 77, N-[6-Amino-5-(2-chlorophenyl)pyridin-2-yl]isoxazole-5-carboxamide] | > 32 | 5 | – | – | –
CCOc1ccc(Cl)c(-c2ccc(NC(=O)c3ccnn3C)nc2N)c1 [Example 150] | – | 2.5 | 19 | – | –
Cn1nncc1C(=O)Nc1ccc(-c2ccc(Cl)cc2Cl)c(N)n1 [Example 79, N-[6-Amino-5-(2,4-dichlorophenyl)pyridin-2-yl]-1-methyl-1H-1,2,3-triazole-5-carboxamide] | 22 | 5.8 | – | – | –
COCCOc1ccc(F)cc1-c1ccc(NC(=O)c2conc2C)nc1N [Example 169] | – | 4.9 | > 32 | – | –
COc1ccc(Cl)c(-c2ccc(NC(=O)c3ccnn3C(C)C)nc2N)c1 [Example 142] | – | 0.96 | 17 | – | –
Cc1nocc1C(=O)Nc1ccc(-c2cc(F)ccc2OC(C)C)c(N)n1 [Example 145] | – | 1.5 | 28 | – | –
COc1ccc(C(=O)Nc2ccc(-c3cc(Cl)ccc3Cl)c(N)n2)c(OC)c1 [Example 105] | 7.7 | 3.5 | – | – | –
COCc1ccccc1-c1ccc(NC(=O)c2conc2C)nc1N [Example 129] | – | 3.5 | 20 | – | –
Cc1nonc1C(=O)Nc1ccc(-c2ccccc2Cl)c(N)n1 [Example 46, N-[6-Amino-5-(2-chlorophenyl)pyridin-2-yl]-4-methyl-1,2,5-oxadiazole-3-carboxamide] | 30 | 1.2 | – | – | –
Cn1nccc1C(=O)Nc1ccc(-c2cc(Cl)cc(Cl)c2Cl)c(N)n1 [Example 4, N-[6-Amino-5-(2,3,5-trichlorophenyl)pyridin-2-yl]-1-methyl-1H-pyrazole-5-carboxamide] | – | 0.68 | – | – | –
COCCCOc1ccc(F)cc1-c1ccc(NC(=O)c2conc2C)nc1N [Example 152] | – | 1.9 | 31 | – | –
Cc1nocc1C(=O)Nc1ccc(-c2cc(Cl)cc(Cl)c2Cl)c(N)n1 [Example 28, N-[6-Amino-5-(2,3,5-trichlorophenyl)pyridin-2-yl]-3-methylisoxazole-4-carboxamide] | – | 0.67 | 9.5 | – | –

SMILES | IC50 [1] [µM] | IC50 (Human Nav1.8; [2]) [µM] | IC50 (Human Nav1.5; [3]) [µM] | IC50 (Human Nav1.8) [µM] | IC50 (Human Nav1.5) [µM]
COCCCOc1ccc(F)cc1-c1ccc(NC(=O)c2ccnn2C)nc1N [Example 153] | – | – | > 32 | 8.8 | –
COc1ccc(C(=O)Nc2ccc(-c3cc(Cl)ccc3Cl)c(N)n2)cc1OC [Example 103] | 8.4 | 4.1 | – | – | –
COc1cccc(-c2ccc(NC(=O)c3ccnn3C)nc2N)c1OC [Example 125] | – | – | – | 25 | > 32
COc1ccc(F)cc1-c1ccc(NC(=O)c2conc2C)nc1N [Example 123] | – | 2.4 | > 32 | – | –
Cc1nocc1C(=O)Nc1ccc(-c2cc(F)ccc2OC2CCOC2)c(N)n1 (stereo not shown) [Example 167] | – | 11 | > 32 | – | –
COC(C)COc1ccccc1-c1ccc(NC(=O)c2conc2C)nc1N (stereo not shown) [Example 161] | – | 6.7 | > 32 | – | –
COc1ccc(Cl)c(-c2ccc(NC(=O)c3ccno3)nc2N)c1 [Example 76, N-[6-Amino-5-(2-chloro-5-methoxyphenyl)pyridin-2-yl]isoxazole-5-carboxamide] | 6.5 | 0.86 | – | – | –
CCOc1ccc(OC(F)(F)F)c(-c2ccc(NC(=O)c3ccnn3C)nc2N)c1 [Example 110, N-{6-amino-5-[5-ethoxy-2-(trifluoromethoxy)phenyl]pyridin-2-yl}-1-methyl-1H-pyrazole-5-carboxamide] | – | 1.5 | 2.3 | – | –
CCOc1ccccc1-c1ccc(NC(=O)c2ccnn2C)nc1N [Example 130] | – | 2.3 | 22 | – | –
Cc1nocc1C(=O)Nc1ccc(-c2cc(Cl)ccc2OCC(F)(F)F)c(N)n1 [Example 163] | – | 0.48 | 9.9 | – | –
COc1cccc(C(=O)Nc2ccc(-c3cc(Cl)ccc3Cl)c(N)n2)c1 [Example 102] | 5.4 | 2.3 | – | – | –
CCCCOc1ccc(F)cc1-c1ccc(NC(=O)c2ccnn2C)nc1N [Example 144] | – | 0.53 | 23 | – | –
Cc1nonc1C(=O)Nc1ccc(-c2ccc(Cl)cc2Cl)c(N)n1 [Example 49, N-[6-Amino-5-(2,4-dichlorophenyl)pyridin-2-yl]-4-methyl-1,2,5-oxadiazole-3-carboxamide] | 12 | 6.1 | – | – | –
COc1cc(OC)cc(C(=O)Nc2ccc(-c3cc(Cl)ccc3Cl)c(N)n2)c1 [Example 104] | 8 | 3.3 | – | – | –
COc1ccc(Cl)c(-c2ccc(NC(=O)c3nonc3C)nc2N)c1 [Example 45, N-[6-Amino-5-(2-chloro-5-methoxyphenyl)pyridin-2-yl]-4-methyl-1,2,5-oxadiazole-3-carboxamide] | 13 | 2.6 | – | – | –
Cn1nccc1C(=O)Nc1ccc(-c2ccccc2CC(F)(F)F)c(N)n1 [Example 139] | – | 2.1 | 7.5 | – | –
Cn1nccc1C(=O)Nc1ccc(-c2cc(O)cc(Cl)c2Cl)c(N)n1 [Example 177] | – | 1.3 | 12 | – | –
COc1ccc(OC(F)(F)F)c(-c2ccc(NC(=O)c3ccnn3C)nc2N)c1 [Example 140] | – | 0.43 | 18 | – | –
Cc1nocc1C(=O)Nc1ccc(-c2cc(O)cc(Cl)c2Cl)c(N)n1 [Example 176] | – | 1.4 | 10 | – | –
Cc1oncc1C(=O)Nc1ccc(-c2cc(Cl)cc(Cl)c2Cl)c(N)n1 [Example 22, N-[6-Amino-5-(2,3,5-trichlorophenyl)pyridin-2-yl]-5-methylisoxazole-4-carboxamide] | – | 1 | 4.6 | – | –

SMILES | IC50 [1] [µM] | IC50 (Human Nav1.8; [2]) [µM] | IC50 (Human Nav1.5; [3]) [µM] | IC50 (Human Nav1.8) [µM] | IC50 (Human Nav1.5) [µM]
COC(C)COc1ccccc1-c1ccc(NC(=O)c2ccnn2C)nc1N (stereo not shown) [Example 160] | – | 13 | > 32 | – | –
COC(C)COc1ccc(F)cc1-c1ccc(NC(=O)c2conc2C)nc1N (stereo not shown) [Example 159] | – | 4.7 | > 32 | – | –
COCCOc1ccccc1-c1ccc(NC(=O)c2ccnn2C)nc1N [Example 155] | – | 18 | > 32 | – | –
Cc1ccc(OC(F)(F)F)c(-c2ccc(NC(=O)c3ccnn3C)nc2N)c1 [Example 137] | – | 1.2 | 18 | – | –
COc1cccc(-c2ccc(NC(=O)c3conc3C)nc2N)c1OC [Example 133] | – | 2.9 | > 32 | – | –
COCc1ccc(Cl)c(-c2ccc(NC(=O)c3conc3C)nc2N)c1 [Example 138] | – | 1 | 23 | – | –
COCCOc1ccc(Cl)c(-c2ccc(NC(=O)c3conc3C)nc2N)c1 [Example 170] | – | 0.9 | 21 | – | –
CCOc1ccc(Cl)c(-c2ccc(NC(=O)c3conc3C)nc2N)c1 [Example 154] | – | 0.47 | 10 | – | –
Cn1nccc1C(=O)Nc1ccc(-c2ccccc2OCC2CC2)c(N)n1 [Example 143] | – | 0.97 | 24 | – | –
Cc1nocc1C(=O)Nc1ccc(-c2ccccc2CC(F)(F)F)c(N)n1 [Example 146] | – | – | 13 | – | –
COCCCOc1ccccc1-c1ccc(NC(=O)c2conc2C)nc1N [Example 156] | – | 3.1 | 31 | – | –
COCCCOc1ccccc1-c1ccc(NC(=O)c2ccnn2C)nc1N [Example 157] | – | 9.5 | > 32 | – | –
CC(C)Oc1ccc(F)cc1-c1ccc(NC(=O)c2ccnn2C)nc1N [Example 109, N-[6-amino-5-(5-fluoro-2-isopropoxyphenyl)pyridin-2-yl]-1-methyl-1H-pyrazole-5-carboxamide] | – | 5.7 | 27 | – | –
CCCOc1ccc(F)cc1-c1ccc(NC(=O)c2ccnn2C)nc1N [Example 136] | – | 0.6 | 27 | – | –
COCCOc1ccc(F)cc1-c1ccc(NC(=O)c2ccnn2C)nc1N [Example 147] | – | 12 | > 32 | – | –
COCCOc1ccccc1-c1ccc(NC(=O)c2conc2C)nc1N [Example 149] | – | 4 | > 32 | – | –
CCOc1ccc(F)cc1-c1ccc(NC(=O)c2ccnn2C)nc1N [Example 132] | – | 1.5 | > 32 | – | –
CCOc1ccc(F)cc1-c1ccc(NC(=O)c2conc2C)nc1N [Example 135] | – | 0.28 | 26 | – | –
Cc1nocc1C(=O)Nc1ccc(-c2ccccc2OCC(F)(F)F)c(N)n1 [Example 134] | – | 0.41 | 18 | – | –
CC(C)COc1ccccc1-c1ccc(NC(=O)c2ccnn2C)nc1N [Example 131] | – | 0.64 | 18 | – | –
